Reference: patent US4879295A, “N-tetrazolyl thiazolecarboxyamide derivatives and their use” (Sawai Pharmaceutical Co., Ltd., priority 1986, dated 1989)

Columns and labels:
[1] = system: passive cutaneous anaphylaxis (PCA); assay: Anti-passive cutaneous anaphylaxis (PCA) activity in rats, 48-hours PCA (TEST EXAMPLE 1); assay type: in vivo, rat (Wistar strain male); conditions: Rattus norvegicus
Protocol: Anti-passive cutaneous anaphylaxis (PCA) activity in rats
(§1) Wistar strain male rats (6 weeks old) were purchased from Shizuoka Experimental Animal Agricultural Cooperative (Japan), habituated to a breeding environment for 1 week before using for the experiment.
(2) Preparation of antiserum
Preparation of antiserum was carried out according to the method described in J. Immunol. 106, 1002-1011 (1971).
(§2) Thus, Ascaris suum extract was dinitrophenylated (DNP-As) and infused subcutaneously together with dead Bordetella pertussis at four sites on the foot-pad. After 5 days, the rats were boostered with DNP-As (1 mg) at the dosal muscle. After 3 days, bloods samples were collected and serum was separated which was used as anti DNP-As antiserum. The titer of the antiserum was measured by rats 48-hours PCA and found to be 1:200.
Rats were sensitized with 35 times dilution of anti DNP-As antiserum administered at two sites in the pre-clipped right dosal skin. After 48 hours, DNP-As (500 μg in 0.5% Evans blue-physiological saline (1 ml) was administered into caudal vein to elicit the reaction. Then, 30 minutes later, the animals were decapitated, the dosal skin was peeled, two sensitized areas as well as one control area were cut off and analyzed for Evans blue exudation which was used as an indicative of the reaction according to the method disclosed in Microbiol. Immunol. 22, 89-101 (1978). Thus, cut skins were treated with 1N-NaOH (1 ml) and incubated at 37° C. for 16 hours to dissolve the skin tissue. A mixed solution (9 ml) of 0.6N-phosphoric acid-acetone (5:13) was added and the mixture was centrifuged (300 r.p.m) for 15 minutes. The supernatant was assayed for absorption at 620 nm and the exudation of Evans blue was determined. Test compounds (I) were administered either into caudal vein 5 minutes before the elicitation of the reaction, or perorally as a suspension in 0.5% 1 hour before the elicitation.

[2] = system: passive cutaneous anaphylaxis (PCA); assay: Anti-passive cutaneous anaphylaxis (PCA) activity in rats, P.O. only (TEST EXAMPLE 2); assay type: in vivo, rat (Wistar strain male); conditions: 1 hour before elicitation
Protocol: as §1, §2
Rats were sensitized with 35 times dilution of anti DNP-As antiserum administered at two sites in the pre-clipped right dosal skin. […] The supernatant was assayed for absorption at 620 nm and the exudation of Evans blue was determined. […]

[3] = iv, I.V. (caudal vein), 5 minutes before elicitation
[4] = po, P.O., 1 hour before elicitation

SMILES | inhibition in vivo at 2 mg/kg [1, 3] [%] | further results
O=C(Nc1nnn[nH]1)c1csc(-c2ccccc2O)n1 [Compound I-1] | 99 | inhibition in vivo at 0.5 mg/kg ([1]; iv, I.V. (caudal vein), 0.5 mg/kg, 5 minutes before elicitation): 67%; inhibition in vivo at 1.5 mg/kg ([1]; iv, I.V. (caudal vein), 1.5 mg/kg, 5 minutes before elicitation): 98%
COc1ccccc1-c1nc(C(=O)Nc2nnn[nH]2)cs1 [Compound I-2] | 99 | inhibition in vivo at 50 mg/kg [1, 4]: 60%
COc1cccc(-c2nc(C(=O)Nc3nnn[nH]3)cs2)c1 [Compound I-3, 2-(3-methoxyphenyl)-N-(1H-tetrazole-5-yl)-4-thiazolecarboxamide] | 99 | inhibition in vivo at 30 mg/kg [1, 4]: 77%
COc1ccc(-c2nc(C(=O)Nc3nnn[nH]3)cs2)cc1 [Compound I-4] | 98 | 
Cc1ccc(-c2nc(C(=O)Nc3nnn[nH]3)cs2)cc1 [Compound I-7] |  | inhibition in vivo at 30 mg/kg [1, 4]: 76%
O=C(Nc1nnn[nH]1)c1csc(-c2cccc(C(F)(F)F)c2)n1 [Compound I-17, 2-(3-trifluoromethylphenyl)-N-(1H-tetrazole-5-yl)-4-thiazolecarboxamide] | 98 | 
O=C(Nc1nnn[nH]1)c1csc(-c2cc(Cl)ccc2O)n1 [Compound I-19, 2-(5-chloro-2-hydroxyphenyl)-N-(1H-tetrazole-5-yl)-4-thiazolecarboxamide] | 97 | 
COc1ccc(O)c(-c2nc(C(=O)Nc3nnn[nH]3)cs2)c1 [Compound I-20, 2-(2-hydroxy-5-methoxyphenyl)-N-(1H-tetrazole-5-yl)-4-thiazolecarboxamide] | 93 | 
O=C(Nc1nnn[nH]1)c1csc(-c2cc([N+](=O)[O-])ccc2O)n1 [Compound I-21, 2-(2-hydroxy-5-nitrophenyl)-N-(1H-tetrazole-5-yl)-4-thiazolecarboxamide] | 98 | 
Cc1ccc(O)c(-c2nc(C(=O)Nc3nnn[nH]3)cs2)c1 [Compound I-22, 2-(2-hydroxy-5-methylphenyl)-N-(1H-tetrazole-5-yl)-4-thiazolecarboxamide] | 81 | 
O=C(Nc1nnn[nH]1)c1csc(-c2ccccc2OCc2ccccc2)n1 [Compound I-23, 2-(2-benzyloxyphenyl)-N-(1H-tetrazole-5-yl)-4-thiazolecarboxamide] | 98 | 
Cc1ccc(-c2nc(C(=O)Nc3nnn[nH]3)c(C)s2)cc1 [Compound I-27, 2-(4-methylphenyl)-5-methyl-N-(1H-tetrazole-5-yl)-4-thiazolecarboxamide] |  | inhibition in vivo at 25 mg/kg ([1]; po, P.O., 25 mg/kg, 1 hour before elicitation): 91%
Cc1ccc(-c2nc(C(=O)Nc3nnn[nH]3)c(C)s2)s1 [Compound I-42, 2-(5-Methyl-2-thienyl)-5-methyl-N-(1H-tetrazole-5-yl)-4-thiazolecarboxamide] |  | Inhibition ([2]; 25 mg/kg): 73%
O=C(O)c1cc(=O)c2c(OCC(O)COc3cccc4oc(C(=O)O)cc(=O)c34)cccc2o1 [DSCG, disodium cromoglicate, reference compound] |  | inhibition in vivo at 5 mg/kg ([1]; iv, I.V. (caudal vein), 5 mg/kg, 5 minutes before elicitation): 92%
COc1ccc(/C=C/C(=O)Nc2ccccc2C(=O)O)cc1OC [Tranilast, tranilast, reference compound] |  | inhibition in vivo at 50 mg/kg [1, 4]: 0%; Inhibition ([2]; 50 mg/kg): 0%
